Data: US20060229433A1, “Modified antiviral peptides with increased activity and cell membrane affinity” (priority 2003, published 2006)
Where “and” joins values, the source holds several entries; their conditions need not be identical. Equal values may be shown once. Bridge positions count the residues as written; N and C are the ends. Square brackets hold non-standard residues; d marks the D form. Ends that are not written are not given here. Peptide text beside a SMILES is read from it. I, II: the chains in the order shown. Ava = NCCCCC(=O)O; βAla = NCCC(=O)O

Tests used:
Format in all cases: cell-based
[1] = test system: HIV-1 NL 4-3; assay: HIV-1 infection of C8166 cells (syncytia formation, p24 ELISA) with HIV-1 NL 4-3; details: for IC50: C8166 cells, HIV-1 subtype B NL 4-3, Table 3
Procedure: (§1) HIV-1 NL 4-3 isolate (Adachi et al., 1986; Barré-Sinoussi et al., 1983) and highly cytopathic Zairian HIV-1 NDK isolate (Ellrodt et al., 1984) was propagated in permissive CEM cells (Nara et al., 1987). Uninfected CEM and C8166 (Salahuddin et al., 1983) were maintained in RPMI 1640 (R10) with ultraglutamine (cambrex, Vervier, Belgium), penicillin (100 U/ml), streptomycin (100 μg/ml), and 10% heat-inactivated fetal calf serum (Cambrex).
(§2) Samples of 3×10^5/100 μL C8166 cells were preincubated in 96-well microtiter plates in culture medium containing various concentrations of peptide. After a 1 h treatment at 37° C., 100 μl of diluted viral solution of HIV-1 was added. The cells were exposed to the virus for 1 h at 37° C. at a multiplicity of infection of 1000 TCID50 per ml. The cells were washed three times and cultured at 3×10^5/ml of R10 with the treatment in 24-well plates incubated at 37° C. C8166 culture medium was replaced at Day-4 post-infection. The treatment was permanent before virus adsorption, during virus adsorption and after infection. Assays on C8166 cells have been performed at least twice and in duplicate. Toxicity was evaluated by daily cell count and trypan-blue exclusion assay. Infection of C8166 T-cells with HIV-1 was assessed by virus-induced cytopathic effects (syncytia formation) and by quantification of cell free p24 viral protein in the culture supernatants. Measurements of HIV-1 p24^gag concentration in the culture supernatants were achieved by ELISA (ALLIANCE® HIV-1 p24 kit, Perkin Elmer, life sciences, USA).

[2] = test system: HIV-1 NL 4-3; assay: as above; set-up: key: ++, +, (+), (+)− and − represent decreasing numbers of syncitia formed; ++, +, (+), (+)− and − represent decreasing numbers of syncitia formed; ++, +, (+), (+)− and − represent decreasing numbers of syncitia formed; ++, +, (+), (+)− and − represent decreasing numbers of syncitia formed; ++, +, (+), (+)− and − represent decreasing numbers of syncitia formed; details: Table 1
Procedure: as §1, §2

[3] = test system: HIV-1 NL 4-3; assay: as above; set-up: key: ++, +, (+), (+)− and − represent decreasing numbers of syncitia formed.; ++, +, (+), (+)− and − represent decreasing numbers of syncitia formed.; ++, +, (+), (+)− and − represent decreasing numbers of syncitia formed.; ++, +, (+), (+)− and − represent decreasing numbers of syncitia formed.; ++, +, (+), (+)− and − represent decreasing numbers of syncitia formed; details: Table 2
Procedure: as §1, §2

[4] = test system: HIV-1 NL 4-3; assay: Infection of human peripheral blood lymphocytes (PBL) with NL 4-3 strain, p24 ELISA
Procedure: Peripheral blood lymphocytes from an HIV-1 negative donor were grown as described earlier, maintained in RPMI 1640 with ultraglutamine, supplemented with IL2 (20 μg/ml), penicillin (100 U/ml), streptomycin (100 μg/ml), and 10% heat-inactivated fetal calf serum. Cells were stimulated three days in the medium supplemented with phytohemagglutinin (20 U/ml PHA P, DIFCO, Detroit Mich.).
Samples of 10^6/100 μL PBL cells were preincubated in 96-well microtiter plates in culture medium containing various concentrations of peptides. After a 1 h treatment at 37° C., 100 μl of diluted viral solution of HIV-1 was added. The cells were exposed to the virus for 1 h at 37° C. at a multiplicity of infection of 1000 TCID50 per ml. The cells were washed three times and cultured at […] of medium with the treatment in 24-well plates incubated at 37° in culture medium with the peptides in 5% CO2. The treatment was permanent before virus adsorption, during virus adsorption and after infection. The PBL culture medium was replaced every 3-4 days during three weeks always in the presence of peptide. The cell viability was assessed by cell counts and trypan-blue exclusion assay. The viral production in the culture supernatant was quantified by p24 ELISA test, as described earlier. All the experiments have been done in blind-tests. Tests have been done in duplicate.

Compound: Cc1cn([C@H]2C[C@H](N=[N+]=[N-])[C@@H](CO)O2)c(=O)[nH]c1=O [AZT, reference compound]
- P 24 ([1]; Day 4, 1 μM, Table 1): NEG
- P 24 ([1]; Day 4, 1 μM, Table 2): NEG
- P 24 ([1]; Day 7, 1 μM, Table 1): NEG
- Day 4 syncitia formed ([2]; 1 μM): −
- Day 5 syncitia formed ([2]; 1 μM): −
- Day 6 syncitia formed ([2]; 1 μM): −
- Day 7 syncitia formed ([2]; 1 μM): −
- Day 4 syncitia formed ([3]; 1 μM): −
- Day 5 syncitia formed ([3]; 1 μM): −
- Day 6 syncitia formed ([3]; 1 μM): −
- Day 7 syncitia formed ([3]; 1 μM): −

Compound: CC(C)C[C@H](NC(=O)[C@@H]1CCCN1C(=O)[C@H](CO)NC(=O)[C@H](Cc1ccc(O)cc1)NC(=O)CNC(=O)[C@H](CCC(N)=O)NC(=O)[C@@H](N)CCCNC(=N)N)C(=O)NCCCC[C@H](NC(=O)[C@H](CC(C)C)NC(=O)[C@@H]1CCCN1C(=O)[C@H](CO)NC(=O)[C@H](Cc1ccc(O)cc1)NC(=O)CNC(=O)[C@H](CCC(N)=O)NC(=O)[C@@H](N)CCCNC(=N)N)C(=O)NCCC(=O)O [RL dimer, (RQGYSPL)2-K-βA, reference compound] (I: H-RQGYSPLK[βAla]-OH / II: H-RQGYSPL; amide I:8-II:C; N-terminus assumed)
- IC50 [1]: 0.02 µM
- IC50 ([4]; PBL, NL 4-3 strain, Table 4): 0.01 µM
- IC100 ([4]; PBL, NL 4-3 strain, Table 4): 0.1 µM

Compound: N=C(N)NCCC[C@H](N)C(=O)N[C@@H](CCC(N)=O)C(=O)NCC(=O)N[C@@H](Cc1ccc(O)cc1)C(=O)N[C@@H](CO)C(=O)NCCCC[C@H](NC(=O)[C@H](CO)NC(=O)[C@H](Cc1ccc(O)cc1)NC(=O)CNC(=O)[C@H](CCC(N)=O)NC(=O)[C@@H](N)CCCNC(=N)N)C(=O)NCCCCC(=O)O [RS dimer valeric acid, (RQGYS)2-K—NHCH2CH2CH2CH2COOH] (I: H-RQGYSK[Ava]-OH / II: H-RQGYS; amide I:6-II:C)
- IC50 [1]: 0.05 µM

Compound: N=C(N)NCCC[C@H](N)C(=O)N[C@@H](CCC(N)=O)C(=O)NCC(=O)N[C@@H](Cc1ccc(O)cc1)C(=O)N[C@@H](CO)C(=O)NCCCCC(=O)O [RS monomer valeric acid, RQGYS-NHCH2CH2CH2CH2COOH] (H-RQGYS[Ava]-OH)
- IC50 [1]: 0.2 µM

Compound: N=C(N)NCCC[C@H](N)C(=O)N[C@@H](CCC(N)=O)C(=O)NCC(=O)N[C@@H](Cc1ccc(O)cc1)C(=O)N[C@@H](CO)C(=O)NCCCC[C@H](NC(=O)[C@H](CO)NC(=O)[C@H](Cc1ccc(O)cc1)NC(=O)CNC(=O)[C@H](CCC(N)=O)NC(=O)[C@@H](N)CCCNC(=N)N)C(=O)NCCC(=O)O [RS, (RQGYS)2-K-βA-OH, reference compound] (I: H-RQGYSK[βAla]-OH / II: H-RQGYS; amide I:6-II:C; N-terminus assumed)
- IC50 [1]: 0.1 µM

Compound: GPGRAF [SPC3 monomer, GPGRAF, reference compound]
- IC50 [1]: > 10 µM

Compound: RQGYSPL [RL monomer, RQGYSPL, reference compound]
- IC50 [1]: 0.5 µM

Compound: SPC3-(ε-aminocaproic acid) [S4]
- P 24 ([1]; Day 4, 0.5 μM, Table 1): 43 pg/mL and 28 pg/mL
- P 24 ([1]; Day 4, 2 μM, Table 1): 17 pg/mL and 14 pg/mL
- P 24 ([1]; Day 7, 0.5 μM, Table 1): 19801 pg/mL and 25000 pg/mL
- P 24 ([1]; Day 7, 1 μM, Table 1): 19801 pg/mL and 21640 pg/mL
- P 24 ([1]; Day 7, 2 μM, Table 1): 17872 pg/mL and 24806 pg/mL
- P 24 ([1]; Day 7, 5 μM, Table 1): 21120 pg/mL and 15674 pg/mL
- IC100 ([4]; on PBL): 0.5 µM
- Day 4 syncitia formed ([2]; 0.5 μM): −
- Day 5 syncitia formed ([2]; 0.5 μM): +
- Day 6 syncitia formed ([2]; 0.5 μM): +
- Day 7 syncitia formed ([2]; 0.5 μM): ++
- Day 4 syncitia formed ([2]; 1 μM): −
- Day 5 syncitia formed ([2]; 1 μM): +
- Day 6 syncitia formed ([2]; 1 μM): +
- Day 7 syncitia formed ([2]; 1 μM): ++
- Day 4 syncitia formed ([2]; 2 μM): −
- Day 5 syncitia formed ([2]; 2 μM): +
- Day 6 syncitia formed ([2]; 2 μM): +
- Day 7 syncitia formed ([2]; 2 μM): ++
- Day 4 syncitia formed ([2]; 5 μM): −
- Day 5 syncitia formed ([2]; 5 μM): +
- Day 6 syncitia formed ([2]; 5 μM): +
- Day 7 syncitia formed ([2]; 5 μM): ++

Compound: SPC3-Kpam [S7]
- P 24 ([1]; Day 4, 5 μM, Table 2): NEG
- Day 4 syncitia formed ([3]; 1 μM): (+)
- Day 5 syncitia formed ([3]; 1 μM): +
- Day 6 syncitia formed ([3]; 1 μM): ++
- Day 7 syncitia formed ([3]; 1 μM): ++
- Day 4 syncitia formed ([3]; 5 μM): −
- Day 5 syncitia formed ([3]; 5 μM): −
- Day 6 syncitia formed ([3]; 5 μM): − and +
- Day 7 syncitia formed ([3]; 5 μM): + and ++

Compound: SPC3-Penetratin [S2]
- P 24 ([1]; Day 4, 0.5 μM, Table 1): NEG
- P 24 ([1]; Day 4, 0.5 μM, Table 2): 2 pg/mL
- P 24 ([1]; Day 4, 1 μM, Table 1): NEG
- P 24 ([1]; Day 4, 1 μM, Table 2): NEG
- P 24 ([1]; Day 4, 2 μM, Table 1): NEG
- P 24 ([1]; Day 4, 5 μM, Table 1): NEG
- P 24 ([1]; Day 7, 0.5 μM, Table 2): 115 pg/mL and 91 pg/mL
- P 24 ([1]; Day 7, 1 μM, Table 1): 181 pg/mL and 245 pg/mL
- IC100 ([4]; on PBL): 0.01 µM
- Day 4 syncitia formed ([2]; 0.5 μM): −
- Day 5 syncitia formed ([2]; 0.5 μM): −
- Day 6 syncitia formed ([2]; 0.5 μM): −
- Day 7 syncitia formed ([2]; 0.5 μM): +
- Day 4 syncitia formed ([2]; 1 μM): −
- Day 5 syncitia formed ([2]; 1 μM): −
- Day 6 syncitia formed ([2]; 1 μM): −
- Day 7 syncitia formed ([2]; 1 μM): −
- Day 4 syncitia formed ([2]; 2 μM): −
- Day 5 syncitia formed ([2]; 2 μM): −
- Day 6 syncitia formed ([2]; 2 μM): −
- Day 7 syncitia formed ([2]; 2 μM): −
- Day 4 syncitia formed ([3]; 0.05 μM): (+)
- Day 5 syncitia formed ([3]; 0.05 μM): + and ++
- Day 6 syncitia formed ([3]; 0.05 μM): ++
- Day 7 syncitia formed ([3]; 0.05 μM): ++
- Day 4 syncitia formed ([3]; 0.1 μM): (+)
- Day 5 syncitia formed ([3]; 0.1 μM): +
- Day 6 syncitia formed ([3]; 0.1 μM): +
- Day 7 syncitia formed ([3]; 0.1 μM): ++
- Day 4 syncitia formed ([3]; 0.5 μM): −
- Day 5 syncitia formed ([3]; 0.5 μM): −
- Day 6 syncitia formed ([3]; 0.5 μM): −
- Day 7 syncitia formed ([3]; 0.5 μM): (+) and +
- Day 4 syncitia formed ([3]; 1 μM): −
- Day 5 syncitia formed ([3]; 1 μM): −
- Day 6 syncitia formed ([3]; 1 μM): −
- Day 7 syncitia formed ([3]; 1 μM): −
